# Reference: patent publication US7666876B2, “Buprenorphine formulations for intranasal delivery” (Vernalis (R&D) Limited, priority 2002, dated 2010)
# Test: Effect of dextrose and mannitol concentration on buprenorphine solubility in pectin solution (hplc)
# Details: aqueous solution containing 20 mg/ml pectin, across the measured pH range
# Procedure: Solutions containing pectin (Slendid 100) (20 mg/ml) were prepared at pH 3, 4, 5 and 6 (pH adjustments were made with 0.1M HCl or 0.1M meglumine). […] An excess of buprenorphine hydrochloride was then added and the mixture stirred overnight at 18° C. Saturated buprenorphine hydrochloride solutions were produced by passing each mixture through a 0.2 μm polycarbonate membrane filter. The concentration of buprenorphine hydrochloride in the filtrate was determined by hplc.
smiles,measurement,value
CO[C@]12CCC3(C[C@@H]1[C@@](C)(O)C(C)(C)C)[C@H]1Cc4ccc(O)c5c4[C@@]3(CCN1CC1CC1)C2O5 (stereo partly shown) [Buprenorphine],Effect of dextrose or mannitol concentration on buprenorphine solubility,not affected significantly
